According to US20250163057A1, “DCN-1 MODULATING COMPOUNDS AND METHODS OF USE THEREOF” (Cellarity, Inc., priority 2023, published 2025):
Read-outs that look alike come from different tables or passages of the source.

Tests used:
DCN1 protein = DCN1 protein (Homo sapiens (Human), UniProt Q96GG9); assay: Intact Protein MS Analysis with the RapidFire-TOF System (covalent adduct formation); type: binding; conditions: MS Emax; 400 nM DCN1, 3 hours at room temperature
Summary of the method: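 Tag-cleaved human DCN1 (400 nM) expressed in E. coli, in 25 mM Tris-HCl, 200 mM NaCl, 1 mM DTT, was incubated with 11 compound concentrations for 3 h at room temperature and quenched with 0.2% formic acid. Intact-protein Q-TOF MS with deconvolution detected the compound adduct mass.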

[1] = target: DCN1 (DCUND1) protein PONY domain (Homo sapiens (Human), UniProt Q96GG9); assay: TR-FRET assay, DCN1 binding with FAM-labeled probe
Chain of DCN1 (DCUND1) protein PONY domain (Q96GG9 60-248): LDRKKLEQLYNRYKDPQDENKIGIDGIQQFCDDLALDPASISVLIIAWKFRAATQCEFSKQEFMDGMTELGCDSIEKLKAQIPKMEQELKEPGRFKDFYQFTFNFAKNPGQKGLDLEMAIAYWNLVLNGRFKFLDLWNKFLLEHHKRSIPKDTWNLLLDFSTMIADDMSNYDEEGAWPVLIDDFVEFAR
Summary of the method: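 Binding was read as the TR-FRET ratio between a FAM-tagged inhibitor probe and Tb-labeled biotinylated E. coli-expressed DCN1 PONY domain, measured 1, 5 and 24 h after compound addition. The two setups used 5 nM protein/20 nM FAM-probe or 0.31 nM protein/900 nM total probe (100 nM labeled), in TritonX buffer with 200 mM NaCl.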

[2] = system: fetal hemoglobin gene HBG1; assay: HBG1 Nanostring Assay in CD34+ HSPC erythroid differentiation culture; type: cell-based, human; conditions: for EC50: Homo sapiens, 240 h, HBG1 induction, Day10 of erythroid differentiation; for Nanostring Ymax obs (%): relative to a control compound (C1)
Summary of the method: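 HBG1 counts came from direct nCounter hybridization (67° C, 22 h) of day-10 lysates, normalized to ERCC positive controls and a housekeeping gene, giving EC50 and Ymax versus a reference compound. Compounds in 0.1% DMSO were present from day −2 while cells underwent EPO/SCF/IL-3 erythroid differentiation, with IL-3 dropped at day 7, at 37° C.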

[3] = system: Cullin-3 (CUL3) neddylation; assay: AlphaLISA assay for Cullin-3 (CUL3) neddylation in TF 1 cells; type: cell-based; conditions: Homo sapiens, TF-1, 3 h, 3 hours treatment
Summary of the method: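 Neddylated CUL3 was quantified by AlphaLISA in lysates of TF 1 cells exposed for 3 h to test compound in IMDM without supplements. Percent inhibition set between vehicle and 1 μM DI-1548 positive control; IC50 derived by Hill-equation fitting of dose-response curves.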

[4] = 24 hr after treatment with compound, read-out: TR FRET IC50 24 hr
[5] = read-out: TR FRET IC50 1 hr, 1 hr after treatment with compound
[6] = TR FRET IC50 1 hr (nM), 1 hr after treatment with compound

Chain of DCN1 protein (Q96GG9 whole entry): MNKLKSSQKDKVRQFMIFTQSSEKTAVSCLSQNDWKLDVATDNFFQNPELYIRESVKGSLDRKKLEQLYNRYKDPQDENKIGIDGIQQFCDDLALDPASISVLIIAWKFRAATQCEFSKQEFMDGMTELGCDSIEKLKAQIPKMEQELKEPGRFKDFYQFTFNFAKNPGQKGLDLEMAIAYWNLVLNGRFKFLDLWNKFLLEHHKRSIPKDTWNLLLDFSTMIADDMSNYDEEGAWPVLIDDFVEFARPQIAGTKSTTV

In the case of `C=C(C)C(=O)Nc1nn(-c2ccccc2)c2c1[C@H](c1ccc(F)cc1)[C@H](NC(=O)c1cccc(C(F)(F)F)c1)C(=O)N2CC` (racemic) [Compound I-26], the “% Adduct Formation” value (DCN1 protein) is reported as “+ (MS Emax % adduct formation greater than or equal to 0.0 and less than or equal to 30.0)”, the IC50 [1, 4] is reported as ≤ 200 nM and the IC50 [1, 5] is reported as ≤ 200 nM. The EC50 [2] was 100 to 1000 nM, the “Nanostring Ymax obs (%)” value [2] was “++ (Nanostring Ymax greater than 50.0 and less than or equal to 100.0)” and the IC50 [3] was 100 to 1000 nM.

For `C/C=C(\CN1CCOCC1)C(=O)NCc1nn(-c2ccccc2)c2c1[C@@H](c1ccc(F)cc1)[C@H](NC(=O)c1cccc(C(F)(F)F)c1)C(=O)N2CC` (racemic) [Compound I-27], the “% Adduct Formation” value (DCN1 protein) was “+ (MS Emax % adduct formation greater than or equal to 0.0 and less than or equal to 30.0)”, the IC50 [1, 4] was ≤ 200 nM and the IC50 [1, 5] was ≤ 200 nM. For the same molecule, the EC50 [2] was 100 to 1000 nM, the “Nanostring Ymax obs (%)” value [2] was “++ (Nanostring Ymax greater than 50.0 and less than or equal to 100.0)” and the IC50 [3] was ≤ 100 nM.

In the case of `C=CC(=O)N(C)Cc1nn(-c2ccccc2)c2c1[C@H](c1ccc(F)cc1)[C@H](NC(=O)c1cccc(C(F)(F)F)c1)C(=O)N2CC` (racemic) [Compound I-29], the “% Adduct Formation” value (DCN1 protein) is reported as “+ (MS Emax % adduct formation greater than or equal to 0.0 and less than or equal to 30.0)”, the IC50 [1, 4] is reported as 1000 to 3000 nM and the IC50 [1, 6] is reported as 1000 to 3000 nM. The EC50 [2] was > 1000 nM, the “Nanostring Ymax obs (%)” value [2] was “+ (Nanostring Ymax greater than or equal to 0.0 and less than or equal to 50.0)” and the IC50 [3] was > 1000 nM.

`C=C(CN1CCC(F)(F)C1)C(=O)NCc1nn(-c2ccccc2)c2c1[C@H](c1ccc(F)cc1)[C@@H](NC(=O)c1cccc(C(F)(F)F)c1)C(=O)N2CC` (racemic) [Compound I-32] was tested, and the “% Adduct Formation” value (DCN1 protein) was “+ (MS Emax % adduct formation greater than or equal to 0.0 and less than or equal to 30.0)”, the IC50 [1, 4] was ≤ 200 nM and the IC50 [1, 5] was ≤ 200 nM. For the same molecule, the EC50 [2] was 100 to 1000 nM, the “Nanostring Ymax obs (%)” value [2] was “++ (Nanostring Ymax greater than 50.0 and less than or equal to 100.0)” and the IC50 [3] was ≤ 100 nM.

With `C=C(C(=O)OCC)c1nn(-c2ccccc2)c2c1[C@H](c1ccc(F)cc1)[C@H](NC(=O)c1cccc(C(F)(F)F)c1)C(=O)N2CC` (racemic) [Compound I-35, rac-ethyl 2-((4R,5R)-7-ethyl-4-(4-fluorophenyl)-6-oxo-1-phenyl-5-(3-(trifluoromethyl)benzamido)-4,5,6,7-tetrahydro-1H-pyrazolo[3,4-b]pyridine-3-yl)acrylate] the “% Adduct Formation” value (DCN1 protein) was “+ (MS Emax % adduct formation greater than or equal to 0.0 and less than or equal to 30.0)”, the IC50 [1, 4] was ≤ 200 nM and the IC50 [1, 6] was > 3000 nM. For the same molecule, the EC50 [2] was 100 to 1000 nM, the “Nanostring Ymax obs (%)” value [2] was “+ (Nanostring Ymax greater than or equal to 0.0 and less than or equal to 50.0)” and the IC50 [3] was 100 to 1000 nM.

In the case of `CCN1C(=O)[C@@H](NC(=O)c2cccc(C(F)(F)F)c2)[C@@H](c2ccc(F)cc2)c2c(CNC(=O)C3(C#N)CC3)nn(-c3ccccc3)c21` (racemic) [Compound I-37, rac-N-((4R,5R)-3-((1-cyanocyclopropane-1-carboxamido)methyl)-7-ethyl-4-(4-fluorophenyl)-6-oxo-1-phenyl-4,5,6,7-tetrahydro-1H-pyrazolo[3,4-b]pyridine-5-yl)-3-(trifluoromethyl)benzamide], the “% Adduct Formation” value (DCN1 protein) is reported as “+ (MS Emax % adduct formation greater than or equal to 0.0 and less than or equal to 30.0)”, the IC50 [1, 4] is reported as 1000 to 3000 nM and the IC50 [1, 6] is reported as 1000 to 3000 nM. The EC50 [2] was > 1000 nM, the “Nanostring Ymax obs (%)” value [2] was “+ (Nanostring Ymax greater than or equal to 0.0 and less than or equal to 50.0)” and the IC50 [3] was 100 to 1000 nM.

`CC#CC(=O)Nc1nn(-c2ccccc2)c2c1[C@H](c1ccc(F)cc1)[C@H](NC(=O)c1cccc(C(F)(F)F)c1)C(=O)N2CC` (racemic) [Compound I-51] was tested, and the “% Adduct Formation” value (DCN1 protein) was “+ (MS Emax % adduct formation greater than or equal to 0.0 and less than or equal to 30.0)”, the IC50 [1, 4] was 200 to 1000 nM and the IC50 [1, 6] was 200 to 1000 nM. For the same molecule, the EC50 [2] was 100 to 1000 nM, the “Nanostring Ymax obs (%)” value [2] was “+++ (Nanostring Ymax greater than 100.0)” and the IC50 [3] was 100 to 1000 nM.

For `C=C(C(=O)O)c1nn(-c2ccccc2)c2c1[C@H](c1ccc(F)cc1)[C@H](NC(=O)c1cccc(C(F)(F)F)c1)C(=O)N2CC` (racemic) [Compound I-53, rac-2-((4R,5R)-7-ethyl-4-(4-fluorophenyl)-6-oxo-1-phenyl-5-(3-(trifluoromethyl)benzamido)-4,5,6,7-tetrahydro-1H-pyrazolo[3,4-b]pyridine-3-yl)acrylic acid], the “% Adduct Formation” value (DCN1 protein) was “++ (MS Emax % adduct formation greater than 30.0 and less than or equal to 80.0)”, the IC50 [1, 4] was 200 to 1000 nM and the IC50 [1, 6] was 1000 to 3000 nM. The EC50 [2] was > 1000 nM, the “Nanostring Ymax obs (%)” value [2] was “+++ (Nanostring Ymax greater than 100.0)” and the IC50 [3] was 100 to 1000 nM.

With `C=C(CN1CCOCC1)C(=O)NCc1nn(-c2ccccc2)c2c1[C@@H](c1ccc(F)cc1)[C@H](NC(=O)c1cccc(C(F)(F)F)c1)C(=O)N2CC` (racemic) [Compound I-58] the “% Adduct Formation” value (DCN1 protein) was “+ (MS Emax % adduct formation greater than or equal to 0.0 and less than or equal to 30.0)”, the IC50 [1, 4] was ≤ 200 nM and the IC50 [1, 5] was ≤ 200 nM. For the same molecule, the EC50 [2] was > 1000 nM, the “Nanostring Ymax obs (%)” value [2] was “+ (Nanostring Ymax greater than or equal to 0.0 and less than or equal to 50.0)” and the IC50 [3] was ≤ 100 nM.

In the case of `C/C=C/C(=O)Nc1nn(-c2ccccc2)c2c1[C@H](c1ccc(F)cc1)[C@H](NC(=O)c1cccc(C(F)(F)F)c1)C(=O)N2CC` (racemic) [Compound I-62], the “% Adduct Formation” value (DCN1 protein) is reported as “+ (MS Emax % adduct formation greater than or equal to 0.0 and less than or equal to 30.0)”, the IC50 [1, 4] is reported as 200 to 1000 nM and the IC50 [1, 5] is reported as ≤ 200 nM. The EC50 [2] was > 1000 nM, the “Nanostring Ymax obs (%)” value [2] was “+ (Nanostring Ymax greater than or equal to 0.0 and less than or equal to 50.0)” and the IC50 [3] was 100 to 1000 nM.

In the case of `CCN1C(=O)[C@@H](NC(=O)c2cccc(C(F)(F)F)c2)[C@@H](c2ccc(F)cc2)c2c(NC(=O)C3=CCCC3)nn(-c3ccccc3)c21` (racemic) [Compound I-65], the “% Adduct Formation” value (DCN1 protein) is reported as “+ (MS Emax % adduct formation greater than or equal to 0.0 and less than or equal to 30.0)”, the IC50 [1, 4] is reported as 200 to 1000 nM and the IC50 [1, 5] is reported as ≤ 200 nM. The EC50 [2] was > 1000 nM, the “Nanostring Ymax obs (%)” value [2] was “++ (Nanostring Ymax greater than 50.0 and less than or equal to 100.0)” and the IC50 [3] was ≤ 100 nM.

In the case of `C=C(CN1CCOCC1)C(=O)Nc1nn(-c2ccccc2)c2c1[C@H](c1ccc(F)cc1)[C@H](NC(=O)c1cccc(C(F)(F)F)c1)C(=O)N2CC` (racemic) [Compound I-75], the “% Adduct Formation” value (DCN1 protein) is reported as “+++ (MS Emax % adduct formation greater than 80.0 and less than or equal to 100.0)”, the IC50 [1, 4] is reported as ≤ 200 nM and the IC50 [1, 5] is reported as ≤ 200 nM. For the same molecule, the “Nanostring Ymax obs (%)” value [2] was “+++ (Nanostring Ymax greater than 100.0)” and the IC50 [3] was ≤ 100 nM.

With `CCN1C(=O)[C@@H](NC(=O)c2cccc(C(F)(F)F)c2)[C@H](c2ccc(F)cc2)c2c(CNC(=O)C3=C(C(=O)OC)CC3)nn(-c3ccccc3)c21` (racemic) [Compound I-97] the “% Adduct Formation” value (DCN1 protein) was “+ (MS Emax % adduct formation greater than or equal to 0.0 and less than or equal to 30.0)”, the IC50 [1, 4] was 200 to 1000 nM and the IC50 [1, 5] was ≤ 200 nM. For the same molecule, the EC50 [2] was 100 to 1000 nM, the “Nanostring Ymax obs (%)” value [2] was “++ (Nanostring Ymax greater than 50.0 and less than or equal to 100.0)” and the IC50 [3] was ≤ 100 nM.

With `C=C(CC(=O)OC)C(=O)NCc1nn(-c2ccccc2)c2c1[C@H](c1ccc(F)cc1)[C@H](NC(=O)c1cccc(C(F)(F)F)c1)C(=O)N2CC` (racemic) [Compound I-103] the “% Adduct Formation” value (DCN1 protein) was “+ (MS Emax % adduct formation greater than or equal to 0.0 and less than or equal to 30.0)”, the IC50 [1, 4] was 200 to 1000 nM and the IC50 [1, 6] was 200 to 1000 nM. The EC50 [2] was 100 to 1000 nM, the “Nanostring Ymax obs (%)” value [2] was “+ (Nanostring Ymax greater than or equal to 0.0 and less than or equal to 50.0)” and the IC50 [3] was > 1000 nM.

With `CCN1C(=O)[C@@H](NC(=O)c2cccc(C(F)(F)F)c2)[C@@H](c2ccc(F)cc2)c2c(CN(C)C(=O)/C=C/C(=O)OC)nn(-c3ccccc3)c21` (racemic) [Compound I-107, methyl (˜{E})-4-[[(4˜{R},5˜{S})-7-ethyl-4-(4-fluorophenyl)-6-oxo-1-phenyl-5-[[3-(trifluoromethyl)benzoyl]amino]-4,5-dihydropyrazolo[3,4-b]pyridine-3-yl]methyl-methyl-amino]-4-oxo-but-2-enoate] the “% Adduct Formation” value (DCN1 protein) was “+++ (MS Emax % adduct formation greater than 80.0 and less than or equal to 100.0)”, the IC50 [1, 4] was ≤ 200 nM and the IC50 [1, 5] was ≤ 200 nM. The EC50 [2] was ≤ 100 nM, the “Nanostring Ymax obs (%)” value [2] was “+++ (Nanostring Ymax greater than 100.0)” and the IC50 [3] was ≤ 100 nM.

With `CCN1C(=O)[C@@H](NC(=O)c2cccc(C(F)(F)F)c2)[C@@H](c2ccc(F)cc2)c2c(CN3CC=CS3(=O)=O)nn(-c3ccccc3)c21` (racemic) [Compound I-110] the “% Adduct Formation” value (DCN1 protein) was “+ (MS Emax % adduct formation greater than or equal to 0.0 and less than or equal to 30.0)”, the IC50 [1, 4] was 200 to 1000 nM and the IC50 [1, 6] was 200 to 1000 nM. For the same molecule, the EC50 [2] was > 1000 nM, the “Nanostring Ymax obs (%)” value [2] was “+ (Nanostring Ymax greater than or equal to 0.0 and less than or equal to 50.0)” and the IC50 [3] was 100 to 1000 nM.
